# Reference: patent US6481154B1, “Method of large-scale propagation of trees of genus Swietenia” (Sumitomo Forestry Co., Ltd., priority 2000, dated 2002)
# Legend:
# [1] = system: single shoots of Swietenia macrophylla; experiment: Rooting conditions (2): modified MS medium for 3 months; format: cell-based
# Protocol: (§1) A large number of shoots obtained in (4) were cut to single shoots which were cultured in the following procedures:
# (2) The single shoots were cultured on a modified MS medium containing 0 to 10.0 mg/l of IBA for 3 months, while transplanting the shoots to a fresh medium of the same composition every month.
# (§2) All the above (1)-(4) cultures were conducted under conditions wherein a temperature was 26±2° C., a humidity was 60 to 90% and a light intensity was 3,000 to 9,000 Lux. Further, all the modified media in the above (1)-(4) contained 2.8 g/l of gelright.
# [2] = system: single shoots of Swietenia macrophylla; experiment: Rooting conditions (4): modified B5, then modified MS, then modified B5, one month each; format: cell-based
# Protocol: as §1
# (4) The single shoots were cultured on a modified B5 medium containing 0 to 10.0 mg/l of IBA for one month, then on a modified MS medium containing 0 to 10.0 mg/l of IBA for one month and further on a modified B5 medium containing 0 to 10.0 mg/l of IBA for one month.
# as §2
smiles,measurement,setting,value
"O=C(O)CCCc1c[nH]c2ccccc12 [IBA, 3-indole butyric acid]",Rooting rate (%) For first one month,[1]; IBA 0.1 mg/l,0.0%
same,Rooting rate (%) For second one month,[1]; IBA 0.1 mg/l,0.0%
same,Rooting rate (%) For third one month,[1]; IBA 0.1 mg/l,0.0%
same,Withering rate (%) For first one month,[1]; IBA 0.1 mg/l,0.0%
same,Withering rate (%) For second one month,[1]; IBA 0.1 mg/l,69.2%
same,Withering rate (%) For third one month,[1]; IBA 0.1 mg/l,84.6%
same,Rooting rate (%) For first one month,[1]; IBA 1.0 mg/l,0.0%
same,Rooting rate (%) For second one month,[1]; IBA 1.0 mg/l,3.8%
same,Rooting rate (%) For third one month,[1]; IBA 1.0 mg/l,3.8%
same,Withering rate (%) For first one month,[1]; IBA 1.0 mg/l,0.0%
same,Withering rate (%) For second one month,[1]; IBA 1.0 mg/l,46.2%
same,Withering rate (%) For third one month,[1]; IBA 1.0 mg/l,73.1%
same,Rooting rate (%) For first one month,[1]; IBA 2.0 mg/l,0.0%
same,Rooting rate (%) For second one month,[1]; IBA 2.0 mg/l,3.8%
same,Rooting rate (%) For third one month,[1]; IBA 2.0 mg/l,11.5%
same,Withering rate (%) For first one month,[1]; IBA 2.0 mg/l,0.0%
same,Withering rate (%) For second one month,[1]; IBA 2.0 mg/l,30.8%
same,Withering rate (%) For third one month,[1]; IBA 2.0 mg/l,76.9%
same,Rooting rate (%) For first one month,[1]; IBA 2.5 mg/l,0.0%
same,Rooting rate (%) For second one month,[1]; IBA 2.5 mg/l,13.3%
same,Rooting rate (%) For third one month,[1]; IBA 2.5 mg/l,16.7%
same,Withering rate (%) For first one month,[1]; IBA 2.5 mg/l,0.0%
same,Withering rate (%) For second one month,[1]; IBA 2.5 mg/l,26.7%
same,Withering rate (%) For third one month,[1]; IBA 2.5 mg/l,66.7%
same,Rooting rate (%) For first one month,[1]; IBA 3.0 mg/l,0.0%
same,Rooting rate (%) For second one month,[1]; IBA 3.0 mg/l,3.7%
same,Rooting rate (%) For third one month,[1]; IBA 3.0 mg/l,11.1%
same,Withering rate (%) For first one month,[1]; IBA 3.0 mg/l,0.0%
same,Withering rate (%) For second one month,[1]; IBA 3.0 mg/l,55.6%
same,Withering rate (%) For third one month,[1]; IBA 3.0 mg/l,70.4%
same,Rooting rate (%) For first one month,[1]; IBA 4.0 mg/l,0.0%
same,Rooting rate (%) For second one month,[1]; IBA 4.0 mg/l,0.0%
same,Rooting rate (%) For third one month,[1]; IBA 4.0 mg/l,0.0%
same,Withering rate (%) For first one month,[1]; IBA 4.0 mg/l,10.3%
same,Withering rate (%) For second one month,[1]; IBA 4.0 mg/l,58.6%
same,Withering rate (%) For third one month,[1]; IBA 4.0 mg/l,96.6%
same,Rooting rate (%) For first one month,[1]; IBA 5.0 mg/l,0.0%
same,Rooting rate (%) For second one month,[1]; IBA 5.0 mg/l,0.0%
same,Rooting rate (%) For third one month,[1]; IBA 5.0 mg/l,0.0%
same,Withering rate (%) For first one month,[1]; IBA 5.0 mg/l,46.2%
same,Withering rate (%) For second one month,[1]; IBA 5.0 mg/l,76.9%
same,Withering rate (%) For third one month,[1]; IBA 5.0 mg/l,100.0%
same,Rooting rate (%) For first one month,[1]; IBA 10.0 mg/l,0.0%
same,Rooting rate (%) For second one month,[1]; IBA 10.0 mg/l,0.0%
same,Rooting rate (%) For third one month,[1]; IBA 10.0 mg/l,0.0%
same,Withering rate (%) For first one month,[1]; IBA 10.0 mg/l,65.4%
same,Withering rate (%) For second one month,[1]; IBA 10.0 mg/l,80.8%
same,Withering rate (%) For third one month,[1]; IBA 10.0 mg/l,100.0%
same,Rooting rate (%) For first one month,[2]; IBA 0.1 mg/l,0.0%
same,Rooting rate (%) For second one month,[2]; IBA 0.1 mg/l,0.0%
same,Rooting rate (%) For third one month,[2]; IBA 0.1 mg/l,0.0%
same,Withering rate (%) For first one month,[2]; IBA 0.1 mg/l,84.6%
same,Withering rate (%) For second one month,[2]; IBA 0.1 mg/l,88.5%
same,Withering rate (%) For third one month,[2]; IBA 0.1 mg/l,100.0%
same,Rooting rate (%) For first one month,[2]; IBA 1.0 mg/l,0.0%
same,Rooting rate (%) For second one month,[2]; IBA 1.0 mg/l,0.0%
same,Rooting rate (%) For third one month,[2]; IBA 1.0 mg/l,10.0%
same,Withering rate (%) For first one month,[2]; IBA 1.0 mg/l,10.0%
same,Withering rate (%) For second one month,[2]; IBA 1.0 mg/l,50.0%
same,Withering rate (%) For third one month,[2]; IBA 1.0 mg/l,70.0%
same,Rooting rate (%) For first one month,[2]; IBA 2.0 mg/l,0.0%
same,Rooting rate (%) For second one month,[2]; IBA 2.0 mg/l,10.0%
same,Rooting rate (%) For third one month,[2]; IBA 2.0 mg/l,10.0%
same,Withering rate (%) For first one month,[2]; IBA 2.0 mg/l,0.0%
same,Withering rate (%) For second one month,[2]; IBA 2.0 mg/l,40.0%
same,Withering rate (%) For third one month,[2]; IBA 2.0 mg/l,50.0%
same,Rooting rate (%) For first one month,[2]; IBA 2.5 mg/l,0.0%
same,Rooting rate (%) For second one month,[2]; IBA 2.5 mg/l,30.0%
same,Rooting rate (%) For third one month,[2]; IBA 2.5 mg/l,50.0%
same,Withering rate (%) For first one month,[2]; IBA 2.5 mg/l,0.0%
same,Withering rate (%) For second one month,[2]; IBA 2.5 mg/l,40.0%
same,Withering rate (%) For third one month,[2]; IBA 2.5 mg/l,40.0%
same,Rooting rate (%) For first one month,[2]; IBA 3.0 mg/l,0.0%
same,Rooting rate (%) For second one month,[2]; IBA 3.0 mg/l,10.0%
same,Rooting rate (%) For third one month,[2]; IBA 3.0 mg/l,20.0%
same,Withering rate (%) For first one month,[2]; IBA 3.0 mg/l,0.0%
same,Withering rate (%) For second one month,[2]; IBA 3.0 mg/l,60.0%
same,Withering rate (%) For third one month,[2]; IBA 3.0 mg/l,70.0%
same,Rooting rate (%) For first one month,[2]; IBA 4.0 mg/l,0.0%
same,Rooting rate (%) For second one month,[2]; IBA 4.0 mg/l,0.0%
same,Rooting rate (%) For third one month,[2]; IBA 4.0 mg/l,0.0%
same,Withering rate (%) For first one month,[2]; IBA 4.0 mg/l,40.0%
same,Withering rate (%) For second one month,[2]; IBA 4.0 mg/l,70.0%
same,Withering rate (%) For third one month,[2]; IBA 4.0 mg/l,100.0%
same,Rooting rate (%) For first one month,[2]; IBA 5.0 mg/l,0.0%
same,Rooting rate (%) For second one month,[2]; IBA 5.0 mg/l,0.0%
same,Rooting rate (%) For third one month,[2]; IBA 5.0 mg/l,0.0%
same,Withering rate (%) For first one month,[2]; IBA 5.0 mg/l,50.0%
same,Withering rate (%) For second one month,[2]; IBA 5.0 mg/l,90.0%
same,Withering rate (%) For third one month,[2]; IBA 5.0 mg/l,100.0%
same,Rooting rate (%) For first one month,[2]; IBA 10.0 mg/l,0.0%
same,Rooting rate (%) For second one month,[2]; IBA 10.0 mg/l,0.0%
same,Rooting rate (%) For third one month,[2]; IBA 10.0 mg/l,0.0%
same,Withering rate (%) For first one month,[2]; IBA 10.0 mg/l,70.0%
same,Withering rate (%) For second one month,[2]; IBA 10.0 mg/l,100.0%
same,Withering rate (%) For third one month,[2]; IBA 10.0 mg/l,100.0%
